# Test results: patent US20090144861A1, “Fungicides and Bioregulatory Mixtures” (BASF Aktiengesellschaft, priority 2005, published 2009)
# Tests used:
# Puccinia recondita = test: Curative activity against brown rust of wheat (Puccrt K1); assay type: in vivo, Puccinia recondita on wheat seedlings cultivar Kanzler; details: sprayed 1 day after inoculation, assessed after 7 days
# Description: The active compounds were prepared separately or jointly as a stock solution with 25 mg of active compound which was made up to 10 ml using a mixture of acetone and/or DMSO and the emulsifier Uniperol® EL (wetting agent having emulsifying and dispersing action based on ethoxylated alkylphenols) in a volume ratio of solvent/emulsifier of 99 to 1. The mixture was then made up to 100 ml with water. This stock solution was diluted with the solvent/emulsifier/water mixture described to the concentration of active compounds stated below. […] The expected efficacies of mixtures of active compounds were determined using Colby's formula (Colby, S. R. “Calculating synergistic and antagonistic responses of herbicide combinations”, Weeds, 15, pp. 20-22, 1967) and compared with the observed efficacies. E=x+y−x×y/100 Use Example 1—Curative activity against brown rust of wheat caused by Puccinia recondita (Puccrt K1) Leaves of potted wheat seedlings of the cultivar “Kanzler” were inoculated with a spore suspension of brown rust (Puccinia recondita). The pots were then placed in a chamber with high atmospheric humidity (90 to 95%) at 20 to 22° C. for 24 hours. During this time, the spores germinated and the germ tubes penetrated into the leaf tissue. The next day, the infected plants were sprayed to run off point with the active compound solution described above at the active compound concentration stated below. […] The extent of the rust fungus development on the leaves was then determined. The visually determined values for the percentage of infected leaf area were initially converted into a mean value and then converted into efficacies in % of the untreated control. […] The expected efficacies for active compound combinations were determined using Colby's formula (Colby, S. R. “Calculating synergistic and antagonistic responses of herbicide Combinations”, Weeds, 15, pp. 20-22, 1967) and compared to the observed efficacies. […]
# [1] = tested on: Erysiphe [syn. Blumeria] graminis forma specialis. tritici; test: Activity against mildew of wheat (Erysgt P1); assay type: in vivo, Erysiphe graminis f. sp. tritici on wheat seedlings; details: sprayed 24 hours before inoculation, assessed after 7 days
# Description: The active compounds were prepared separately or jointly as a stock solution with 25 mg of active compound which was made up to 10 ml using a mixture of acetone and/or DMSO and the emulsifier Uniperol® EL (wetting agent having emulsifying and dispersing action based on ethoxylated alkylphenols) in a volume ratio of solvent/emulsifier of 99 to 1. The mixture was then made up to 100 ml with water. This stock solution was diluted with the solvent/emulsifier/water mixture described to the concentration of active compounds stated below.
# The visually determined percentages of infected leaf areas or the measured elongation were converted into efficacies in % of the untreated control:
# The efficacy (E) is calculated as follows using Abbot's formula: […]
# The expected efficacies of mixtures of active compounds were determined using Colby's formula (Colby, S. R. “Calculating synergistic and antagonistic responses of herbicide combinations”, Weeds, 15, pp. 20-22, 1967) and compared with the observed efficacies.
# Use Example 2—Activity against mildew of wheat caused by Erysiphe [syn. Blumeria] graminis forma specialis. tritici (Erysgt P1)
# Leaves of potted wheat seedlings were sprayed to run off point with an aqueous suspension having the active compound concentrations stated below. The suspension or emulsion had been prepared as described above. 24 hours after the spray coating had dried on, the plants were dusted with spores of mildew of wheat (Erysiphe [syn. Blumeria] graminis forma specialis. tritici). The test plants were then placed in a greenhouse at temperatures between 20 and 24° C. and at 60 to 90% relative atmospheric humidity. After 7 days, the extent of the mildew development was determined visually in % infection of the entire leaf area.
# The visually determined values for the percentage of infected leaf area were initially converted into a mean value and then converted into efficacies in % of the untreated control. An efficacy of 0 means the same degree of infection as in the untreated control, an efficacy of 100 means 0% infection. The expected efficacies for active compound combinations were determined using Colby's formula (Colby, S. R. “Calculating synergistic and antagonistic responses of herbicide Combinations”, Weeds, 15, pp. 20-22, 1967) and compared to the observed efficacies.
# [2] = Conc. 1 mg/ml, efficacy in % of untreated control
SMILES,Observed activity (Puccinia recondita; Conc. 0.06 mg/ml) [%],Observed activity (Puccinia recondita; Conc. 1 mg/ml) [%],Observed activity ([1]; Conc. 0.25 mg/ml) [%],"Observed activity [1, 2] [%]","Observed activity (Puccinia recondita; Conc. 0.25 mg/ml, efficacy in % of untreated control) [%]"
"CCC(=O)C1=C([O-])CC(C(=O)[O-])CC1=O.[Ca+2] (stereo not shown) [Prohexadione-Ca, prohexadione-calcium]",0,0,0,0,
"Fc1ccc(C2(Cn3cncn3)OC2c2ccccc2Cl)cc1 (stereo not shown) [Epoxiconazole, epoxiconazole]",,,0,33,11
